Results published in patent US8293753B2, “Substituted 2-carboxamide cycloamino ureas” (Novartis AG, priority 2009, dated 2012).
pIC50: −log10 of the molar value.

What was measured:
Format in all cases: biochemical
[1] = biological target: T1, PI3Kβ (Homo sapiens, UniProt P42338); test: PI3K KinaseGlo assay, PI3Kbeta; conditions: for pIC50: KinaseGlo, 1 μM ATP, 25 nM enzyme, 30 mins; for PI3Kbeta (selectivity): selectivity factor: PI3Kbeta IC50 divided by PI3Kalpha IC50
T1 construct: His (C); made in house; host or cells: baculovirus / Tn5 insect cells

[2] = biological target: T2, PI3Kδ (Homo sapiens, UniProt O00329); test: PI3K KinaseGlo assay, PI3Kdelta; conditions: for pIC50: KinaseGlo, 1 μM ATP, 10 nM enzyme, 30 mins; for PI3Kdelta (selectivity): selectivity factor: PI3Kdelta IC50 divided by PI3Kalpha IC50
T2 construct: p85iSH2(461-568)-GGGGGG-p110δ(2-1044)-His; His (C); made in house; host or cells: baculovirus / Tn5 insect cells

[3] = biological target: T3, PI3Kα (Homo sapiens, UniProt P42336); test: PI3K KinaseGlo assay, PI3Kalpha; conditions: 1 μM ATP, 10 nM enzyme, 30 mins
T3 construct: His (C); made in house; host or cells: baculovirus / Tn5 insect cells

[4] = biological target: T4, PI3Kγ (Homo sapiens, UniProt P48736, Q459R); test: PI3K KinaseGlo assay, PI3Kgamma; conditions: for pIC50: KinaseGlo, 1 μM ATP, 150 nM enzyme, 90 mins; for PI3Kgamma (selectivity): selectivity factor: PI3Kgamma IC50 divided by PI3Kalpha IC50
T4 construct: His (C); made in house; host or cells: Tn5 insect cells; construct obtained from Roger Williams lab (MRC LMB)
Description: PI3K KinaseGlo assay: […] of compound dilutions were dispensed onto black 384-well low volume Non Binding Styrene (NBS) plates (Costar Cat. No. NBS#3676). L-a-phosphatidylinositol (PI), provided as 10 mg/ml solution in methanol, was transferred into a glass tube and dried under nitrogen beam. It was then resuspended in 3% OctylGlucoside (OG) by vortexing and stored at 4° C. The KinaseGlo Luminescent Kinase Assay (Promega, Madison/WI, USA) is a homogeneous HTS method of measuring kinase activity by quantifying the amount of ATP remaining in solution following a kinase reaction.
5 μL of a mix of PI/OG with the PI3K subtype were added (Table 1). Kinase reactions were started by addition of 5 μl of ATP-mix containing in a final volume 10 μL 10 mM TRIS-HCl pH 7.5, 3 mM MgCl2, 50 mM NaCl, 0.05% CHAPS, 1 mM DTT and 1 μM ATP, and occurred at room temperature. Reactions were stopped with 10 μl of KinaseGlo and plates were read 10 mins later in a Synergy2 reader using an integration time of 0.1 seconds per well. […] The standard was used as a reference compound and included in all assay plates in the form of 16 dilution points in duplicate.
The PI3Kα, PI3Kβ and PI3Kδ constructs are fusion of p85α iSH2 domain and the respective p110 isoforms. The p85α fragment and p110 isoform genes were generated by PCR from first strand cDNA generated by RT-PCR from commercial RNA from placenta, testis and brain as described below. The PI3Kγ construct was obtained from Roger Williams lab, MRC Laboratory of Molecular Biology, Cambridge, UK (November, 2003) and is described (Pacold, Michael E.; Suire, Sabine; Perisic, Olga; Lara-Gonzalez, Samuel; Davis, Colin T.; Walker, Edward H.; Hawkins, Phillip T.; Stephens, Len; Eccleston, John F.; Williams, Roger L. Crystal structure and functional analysis of Ras binding to its effector phosphoinositide 3-kinase gamma. Cell (2000), 103(6), 931-943).
Construct obtained from Roger Williams lab, MRC Laboratory of Molecular Biology, Cambridge, UK (November, 2003). Description of the construct in (Pacold, Michael E.; Suire, Sabine; Perisic, Olga; Lara-Gonzalez, Samuel; Davis, Colin T.; Walker, Edward H.; Hawkins, Phillip T.; Stephens, Len; Eccleston, John F.; Williams, Roger L. Crystal structure and functional analysis of Ras binding to its effector phosphoinositide 3-kinase gamma. Cell (2000), 103(6), 931-943). Constructs lacking the N-terminal 144 aa.

T4 sequence (P48736 with tags, fused parts or gaps Q459R): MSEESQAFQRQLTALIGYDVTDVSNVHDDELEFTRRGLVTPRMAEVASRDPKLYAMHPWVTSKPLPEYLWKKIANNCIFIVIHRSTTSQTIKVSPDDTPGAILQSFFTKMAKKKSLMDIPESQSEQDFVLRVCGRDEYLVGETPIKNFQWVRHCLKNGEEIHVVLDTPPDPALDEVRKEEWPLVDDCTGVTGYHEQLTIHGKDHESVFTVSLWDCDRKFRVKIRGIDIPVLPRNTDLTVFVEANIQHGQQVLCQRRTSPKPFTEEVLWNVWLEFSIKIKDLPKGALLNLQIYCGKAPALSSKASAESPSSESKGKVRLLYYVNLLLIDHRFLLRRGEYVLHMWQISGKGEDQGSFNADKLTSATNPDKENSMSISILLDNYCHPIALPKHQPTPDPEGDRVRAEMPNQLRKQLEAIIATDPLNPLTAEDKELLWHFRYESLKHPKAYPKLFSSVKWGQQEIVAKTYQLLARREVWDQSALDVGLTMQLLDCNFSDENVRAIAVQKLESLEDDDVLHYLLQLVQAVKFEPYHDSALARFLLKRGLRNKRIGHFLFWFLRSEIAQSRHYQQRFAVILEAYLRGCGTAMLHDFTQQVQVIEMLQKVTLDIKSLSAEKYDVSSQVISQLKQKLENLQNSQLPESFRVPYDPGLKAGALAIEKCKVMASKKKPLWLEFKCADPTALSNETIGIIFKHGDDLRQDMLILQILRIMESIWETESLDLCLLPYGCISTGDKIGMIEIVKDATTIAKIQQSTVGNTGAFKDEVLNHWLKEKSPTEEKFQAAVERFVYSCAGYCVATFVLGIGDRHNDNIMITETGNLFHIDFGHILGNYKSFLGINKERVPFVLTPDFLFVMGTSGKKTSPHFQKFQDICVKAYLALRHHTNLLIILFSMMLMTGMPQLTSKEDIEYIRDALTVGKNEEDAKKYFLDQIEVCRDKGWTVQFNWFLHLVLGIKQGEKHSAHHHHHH
T3 sequence (P42336 with tags, fused parts or gaps): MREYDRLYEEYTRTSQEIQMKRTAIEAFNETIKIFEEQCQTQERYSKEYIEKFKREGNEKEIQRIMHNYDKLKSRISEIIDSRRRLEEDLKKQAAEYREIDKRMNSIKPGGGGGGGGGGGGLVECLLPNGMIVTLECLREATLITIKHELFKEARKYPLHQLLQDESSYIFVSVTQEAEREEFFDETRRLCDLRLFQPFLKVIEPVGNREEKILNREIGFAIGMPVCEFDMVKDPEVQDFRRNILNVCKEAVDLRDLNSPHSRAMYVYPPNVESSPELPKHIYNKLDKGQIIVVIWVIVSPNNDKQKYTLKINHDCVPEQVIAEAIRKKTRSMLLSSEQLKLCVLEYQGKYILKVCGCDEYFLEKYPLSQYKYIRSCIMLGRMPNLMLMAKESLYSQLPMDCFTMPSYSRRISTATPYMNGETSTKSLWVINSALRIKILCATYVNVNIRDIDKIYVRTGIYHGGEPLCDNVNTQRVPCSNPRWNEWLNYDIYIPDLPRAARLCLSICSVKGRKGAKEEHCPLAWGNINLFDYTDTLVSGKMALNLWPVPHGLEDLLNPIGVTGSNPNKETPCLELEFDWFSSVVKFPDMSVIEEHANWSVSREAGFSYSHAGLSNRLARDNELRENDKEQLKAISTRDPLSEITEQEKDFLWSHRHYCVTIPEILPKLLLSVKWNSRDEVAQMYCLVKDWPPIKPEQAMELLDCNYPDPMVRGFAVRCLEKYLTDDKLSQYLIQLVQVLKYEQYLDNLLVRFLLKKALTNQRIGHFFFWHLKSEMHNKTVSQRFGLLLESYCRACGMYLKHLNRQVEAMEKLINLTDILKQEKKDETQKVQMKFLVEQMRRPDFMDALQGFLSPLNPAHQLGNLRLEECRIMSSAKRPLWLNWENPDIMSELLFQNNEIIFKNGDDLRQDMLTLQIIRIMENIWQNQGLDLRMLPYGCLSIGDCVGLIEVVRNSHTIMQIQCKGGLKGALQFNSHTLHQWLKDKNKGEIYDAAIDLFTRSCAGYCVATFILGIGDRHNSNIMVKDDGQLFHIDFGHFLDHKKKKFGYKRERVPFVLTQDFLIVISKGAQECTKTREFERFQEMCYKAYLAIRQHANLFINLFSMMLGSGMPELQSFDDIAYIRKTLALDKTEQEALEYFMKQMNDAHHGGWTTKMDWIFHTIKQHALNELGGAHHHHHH
T2 sequence (O00329 with tags, fused parts or gaps): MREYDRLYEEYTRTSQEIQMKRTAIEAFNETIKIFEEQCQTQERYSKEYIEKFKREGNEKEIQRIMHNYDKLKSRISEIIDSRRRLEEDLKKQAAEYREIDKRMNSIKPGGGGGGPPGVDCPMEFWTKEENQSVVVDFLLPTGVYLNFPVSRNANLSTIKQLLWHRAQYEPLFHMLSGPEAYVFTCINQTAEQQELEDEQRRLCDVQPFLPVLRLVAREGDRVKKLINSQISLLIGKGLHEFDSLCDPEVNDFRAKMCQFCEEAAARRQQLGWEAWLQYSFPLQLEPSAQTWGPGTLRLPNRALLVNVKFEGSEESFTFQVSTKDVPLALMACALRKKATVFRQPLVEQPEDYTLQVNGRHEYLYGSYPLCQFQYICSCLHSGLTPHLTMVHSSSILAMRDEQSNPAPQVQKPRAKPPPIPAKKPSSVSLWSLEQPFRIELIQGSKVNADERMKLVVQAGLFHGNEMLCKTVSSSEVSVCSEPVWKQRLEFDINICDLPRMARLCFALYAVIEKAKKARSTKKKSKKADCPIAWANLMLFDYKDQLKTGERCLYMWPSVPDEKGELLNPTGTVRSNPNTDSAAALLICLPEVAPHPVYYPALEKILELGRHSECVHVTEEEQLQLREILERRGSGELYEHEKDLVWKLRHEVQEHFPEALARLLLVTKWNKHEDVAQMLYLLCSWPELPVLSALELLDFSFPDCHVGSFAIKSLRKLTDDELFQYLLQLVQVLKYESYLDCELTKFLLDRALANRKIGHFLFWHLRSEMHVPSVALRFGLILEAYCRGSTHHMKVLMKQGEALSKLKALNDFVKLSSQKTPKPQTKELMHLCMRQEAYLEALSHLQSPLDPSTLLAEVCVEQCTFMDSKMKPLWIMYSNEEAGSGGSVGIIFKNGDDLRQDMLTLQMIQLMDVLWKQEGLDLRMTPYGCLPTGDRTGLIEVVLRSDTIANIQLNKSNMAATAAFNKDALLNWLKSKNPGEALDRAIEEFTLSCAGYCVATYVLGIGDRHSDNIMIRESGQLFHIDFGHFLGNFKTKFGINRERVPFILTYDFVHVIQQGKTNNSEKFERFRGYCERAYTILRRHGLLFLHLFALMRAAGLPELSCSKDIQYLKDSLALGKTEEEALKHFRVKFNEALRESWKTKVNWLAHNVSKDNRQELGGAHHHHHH
T1 sequence (P42338 with tags, fused parts or gaps): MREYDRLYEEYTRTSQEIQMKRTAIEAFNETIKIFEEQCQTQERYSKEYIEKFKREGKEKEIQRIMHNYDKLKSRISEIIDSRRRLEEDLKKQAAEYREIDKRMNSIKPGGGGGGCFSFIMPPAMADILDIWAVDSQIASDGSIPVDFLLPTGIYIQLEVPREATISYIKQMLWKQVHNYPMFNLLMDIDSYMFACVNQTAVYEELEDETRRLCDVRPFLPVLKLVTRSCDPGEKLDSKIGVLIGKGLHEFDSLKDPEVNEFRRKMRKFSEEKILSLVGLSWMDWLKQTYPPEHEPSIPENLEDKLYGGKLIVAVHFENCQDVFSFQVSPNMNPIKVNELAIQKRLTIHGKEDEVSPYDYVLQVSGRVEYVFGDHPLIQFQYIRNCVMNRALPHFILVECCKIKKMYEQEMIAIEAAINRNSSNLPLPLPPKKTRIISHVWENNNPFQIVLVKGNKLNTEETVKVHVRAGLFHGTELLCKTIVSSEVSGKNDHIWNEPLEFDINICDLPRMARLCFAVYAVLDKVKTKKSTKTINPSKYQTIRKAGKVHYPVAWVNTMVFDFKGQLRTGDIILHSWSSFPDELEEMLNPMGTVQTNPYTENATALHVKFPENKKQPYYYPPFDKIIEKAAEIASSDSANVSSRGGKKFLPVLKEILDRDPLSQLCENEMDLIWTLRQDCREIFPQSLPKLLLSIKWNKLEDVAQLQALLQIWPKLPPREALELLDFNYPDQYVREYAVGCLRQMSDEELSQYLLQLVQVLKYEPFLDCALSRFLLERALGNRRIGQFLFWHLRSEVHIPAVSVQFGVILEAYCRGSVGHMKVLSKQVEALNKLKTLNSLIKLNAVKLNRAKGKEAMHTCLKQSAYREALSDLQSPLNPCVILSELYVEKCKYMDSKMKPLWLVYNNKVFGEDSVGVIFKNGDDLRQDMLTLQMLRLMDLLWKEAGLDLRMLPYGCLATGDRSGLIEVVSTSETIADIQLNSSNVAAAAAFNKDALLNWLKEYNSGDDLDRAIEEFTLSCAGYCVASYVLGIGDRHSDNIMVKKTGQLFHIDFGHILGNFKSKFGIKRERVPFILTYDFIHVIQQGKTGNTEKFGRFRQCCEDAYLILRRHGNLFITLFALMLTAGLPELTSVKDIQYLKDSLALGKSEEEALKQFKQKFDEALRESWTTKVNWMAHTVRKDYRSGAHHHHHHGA

| SMILES | pIC50 [1] | PI3Kbeta (selectivity) [1] | pIC50 [2] | PI3Kdelta (selectivity) [2] | pIC50 [3] | pIC50 [4] | PI3Kgamma (selectivity) [4] |
| --- | --- | --- | --- | --- | --- | --- | --- |
| Cc1nc(NC(=O)N2CC[C@@H](C)[C@H]2C(N)=O)sc1-c1ccnc(C(C)(C)C)c1 [Example 16, (2S,3R)-3-Methyl-pyrrolidine-1,2-dicarboxylic acid 2-amide 1-{[5-(2-tert-butyl-pyridin-4-yl)-4-methyl-thiazol-2-yl]-amide}] | 5.66 | (241) | 6.95 | (13) | 8.05 |  |  |
| [2H]C([2H])([2H])C(c1nccc(-c2sc(NC(=O)N3CC[C@@H](C)[C@H]3C(N)=O)nc2C)n1)(C([2H])([2H])[2H])C([2H])([2H])[2H] [Example 12, (2S,3R)-3-Methylpyrrolidine-1,2-dicarboxylic acid 2-amide 1-{[5-(2-d9-tert-butyl-pyrimidin-4-yl)-4-methyl-thiazol-2-yl]-amide}] | 5.80 | (353) | 7.48 | (7) | 8.35 | 7.12 | (16) |
| Cc1nc(NC(=O)N2CC[C@@H](C)[C@H]2C(N)=O)sc1-c1ccnc(C2(C)CC2)c1 [Example 1, (2S,3R)-3-Methyl-pyrrolidine-1,2-dicarboxylic acid 2-amide 1-({4-methyl-5-[2-(1-methyl-cyclopropyl)-pyridin-4-yl]-thiazol-2-yl}-amide)] | 5.59 | (370) | 6.77 | (24) | 8.15 | 6.76 | (25) |
| CC(=O)NC[C@@H]1CCN(C(=O)Nc2nc(C)c(-c3ccnc(C4(C)CC4)c3)s2)[C@@H]1C(N)=O [Example 5, (2S,3S)-3-(Acetylamino-methyl)pyrrolidine-1,2-dicarboxylic acid 2-amide 1-({4-methyl-5-[2-(1-methyl-cyclopropyl)-pyridin-4-yl]-thiazol-2-yl}-amide)] | 5.49 | (178) | 6.62 | (13) | 7.74 |  |  |
| [2H]C([2H])([2H])C([2H])([2H])N(c1cncc(-c2sc(NC(=O)N3CC[C@@H](C)[C@H]3C(N)=O)nc2C)n1)C([2H])([2H])C([2H])([2H])[2H] [Example 13, (2S,3R)-3-Methyl-pyrrolidine-1,2-dicarboxylic acid 2-amide 1-{[5-(6-d10-diethylamino-pyrazin-2-yl)-4-methyl-thiazol-2-yl]-amide}] | 6.03 | (234) | 7.31 | (12) | 8.40 | 6.38 | (104) |
| Cc1nc(NC(=O)N2CCC(C)(C)C2C(N)=O)sc1-c1ccnc(C2(C)CC2)c1 (racemic) [Example 3, (rac)-3,3-Dimethyl-pyrrolidine-1,2-dicarboxylic acid 2-amide 1-({4-methyl-5-[2-(1-methyl-cyclopropyl)-pyridin-4-yl]-thiazol-2-yl}-amide)] | < 5.04 | (>171) | 6.10 | (15) | 7.28 | 5.97 | (20) |

More lines, now with the values ahead:

| pIC50 [1] | PI3Kbeta (selectivity) [1] | pIC50 [2] | PI3Kdelta (selectivity) [2] | pIC50 [3] | pIC50 [4] | PI3Kgamma (selectivity) [4] | SMILES |
| --- | --- | --- | --- | --- | --- | --- | --- |
| 6.00 | (76) | 6.16 | (52) | 7.89 |  |  | CC(=O)NC[C@@H]1CCN(C(=O)Nc2nc(C)c(-c3ccnc(C(C)(C)C(F)(F)F)c3)s2)[C@@H]1C(N)=O [Example 6, (2S,3S)-3-(Acetylamino-methyl)-pyrrolidine-1,2-dicarboxylic acid 2-amide 1-({4-methyl-5-[2-(2,2,2-trifluoro-1,1-dimethyl-ethyl)-pyridin-4-yl]-thiazol-2-yl}-amide)] |
| 5.92 | (44) | 7.23 | (2) | 7.57 | 6.98 | (3) | Cc1nc(NC(=O)N2CC[C@@H](C)[C@H]2C(N)=O)sc1-c1ccnc(C(C)(C)C(F)(F)F)c1 [Example 2, (2S,3R)-3-Methyl-pyrrolidine-1,2-dicarboxylic acid 2-amide 1-({4-methyl-5-[2-(2,2,2-trifluoro-1,1-dimethyl-ethyl)-pyridin-4-yl]-thiazol-2-yl}-amide)] |
| 5.29 | (136) | 6.72 | (5) | 7.42 |  |  | Cc1nc(NC(=O)N2CC[C@@H](CN3CCOCC3)[C@H]2C(N)=O)sc1-c1ccnc(C2(C)CC2)c1 [Example 7, (2S,3S)-3-Morpholin-4-ylmethyl-pyrrolidine-1,2-dicarboxylic acid 2-amide 1-({4-methyl-5-[2-(1-methyl-cyclopropyl)-pyridin-4-yl]-thiazol-2-yl}-amide)] |
| 5.16 | (76) | 6.36 | (4) | 7.04 | 5.77 | (18) | Cc1nc(NC(=O)N2CCC(C)(C)C2C(N)=O)sc1-c1ccnc(C(C)(C)C(F)(F)F)c1 (racemic) [Example 4, (rac)-3,3-Dimethyl-pyrrolidine-1,2-dicarboxylic acid 2-amide 1-({4-methyl-5-[2-(2,2,2-trifluoro-1,1-dimethyl-ethyl)-pyridin-4-yl]-thiazol-2-yl}-amide)] |
| 5.83 | (122) | 6.96 | (9) | 7.92 |  |  | COC[C@@H]1CCN(C(=O)Nc2nc(C)c(-c3ccnc(C(C)(C)C(F)(F)F)c3)s2)[C@@H]1C(N)=O [Example 14, (2S,3R)-3-Methoxymethyl-pyrrolidine-1,2-dicarboxylic acid 2-amide 1-({4-methyl-5-[2-(2,2,2-trifluoro-1,1-dimethyl-ethyl)-pyridin-4-yl]-thiazol-2-yl}-amide)] |
| 5.49 | (192) | 7.03 | (5) | 7.77 |  |  | Cc1nc(NC(=O)N2CC[C@@H](CN(C)C)[C@H]2C(N)=O)sc1-c1ccnc(C(C)(C)C(F)(F)F)c1 [Example 15, (2S,3S)-3-Dimethylaminomethyl-pyrrolidine-1,2-dicarboxylic acid 2-amide 1-({4-methyl-5-[2-(2,2,2-trifluoro-1,1-dimethyl-ethyl)-pyridin-4-yl]-thiazol-2-yl}-amide)] |
| 5.64 | (380) | 7.31 | (8) | 8.22 |  |  | Cc1nc(NC(=O)N2CC[C@@H](CN3CCOCC3)[C@H]2C(N)=O)sc1-c1ccnc(C(C)(C)C(F)(F)F)c1 [Example 8, (2S,3S)-3-Morpholin-4-ylmethyl-pyrrolidine-1,2-dicarboxylic acid 2-amide 1-({4-methyl-5-[2-(2,2,2-trifluoro-1,1-dimethyl-ethyl)-pyridin-4-yl]-thiazol-2-yl}-amide)] |
| < 5.04 | (910) | 6.23 | (58) | 8.00 | 6.70 | (20) | Cc1nc(NC(=O)N2CC[C@@H](C)[C@H]2C(N)=O)sc1-c1ccnc(C(C)(C)F)n1 [Example 9, (2S,3R)-3-Methyl-pyrrolidine-1,2-dicarboxylic acid 2-amide 1-({5-[2-(1-fluoro-1-methyl-ethyl)-pyrimidin-4-yl]-4-methyl-thiazol-2-yl}-amide)] |
